Source: ChEMBL document CHEMBL1201862, “PubChem BioAssay data set” (2004)
Active and inactive are the calls of the source.

Legend:
[1] = HEK-293T viability loss, compound-treated – cell-based, uHTS hits, cytotoxicity control for B/T-cell NF-kB inhibitor project, dose response (AID 489019); assay type: functional;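 further: IC50 reflects cytotoxicity as loss of cell viability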
[2] = blockade of melanocortin 4 receptor signaling – cell-based, plate reader, cherry pick, counter-screen for LGR2 antagonist project, dose response (AID 743444); assay type: functional;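 further: transfected HEK 293 cells stimulated with alpha-MSH peptide; potency of inhibitors of the alpha-MSH evoked signal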
H4 [3] = experiment: Inhibitors of Prion Protein 5' UTR mRNA Measured in Cell-Based System Using Plate Reader - 2078-01_Inhibitor_Dose_DryPowder_Activity. [Related pubchem assays (depositor defined):AID488894]; assay type: functional; settings: Homo sapiens
H4 [4] = experiment: Amyloid Precursor 5' UTR neuroblastoma cell reporter line Measured in Cell-Based System Using Plate Reader - 2078-04_Inhibitor_Dose_DryPowder_Activity. [Related pubchem assays (depositor defined):AID488894]; assay type: functional; settings: Homo sapiens
[5] = target: Luciferin 4-monooxygenase (Photinus pyralis, UniProt P08659); experiment: inhibition of purified Photinus pyralis luciferase – biochemical, dry powder samples, plate reader, dose response (AID 588451)
H4 [6] = experiment: inhibitors of control reporter signal in H4 cells – cell-based, plate reader, dry powder samples, counter-screen for prion reporter project, dose response (AID 540255); assay type: functional; settings: Homo sapiens
Jurkat = experiment: blockers of NF-kB activation in T cells – Jurkat, luciferase reporter, luminescence, B- and T-cell, dose response (AID 489004); assay type: functional, cell-based; settings: Homo sapiens;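 further: NF-kB luciferase reporter Jurkat cells stimulated with PMA plus ionomycin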
[7] = blockers of bursicon-stimulated LGR2 cAMP reporter – cell-based, HEK293, CRE-luciferase reporter, cherry pick, set 2, dose response (AID 743343); assay type: functional;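 further: transfected cells were stimulated with diluted bursicon conditioned medium after compound addition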
[8] = target: T1, Replicative DNA helicase DnaB (Mycobacterium tuberculosis, UniProt P9WMR3); experiment: DnaB intein splicing inhibitors, dose response, biochemical, cell-free fluorescence (AID 449749); assay type: functional
T1 sequence (P9WMR3 whole entry): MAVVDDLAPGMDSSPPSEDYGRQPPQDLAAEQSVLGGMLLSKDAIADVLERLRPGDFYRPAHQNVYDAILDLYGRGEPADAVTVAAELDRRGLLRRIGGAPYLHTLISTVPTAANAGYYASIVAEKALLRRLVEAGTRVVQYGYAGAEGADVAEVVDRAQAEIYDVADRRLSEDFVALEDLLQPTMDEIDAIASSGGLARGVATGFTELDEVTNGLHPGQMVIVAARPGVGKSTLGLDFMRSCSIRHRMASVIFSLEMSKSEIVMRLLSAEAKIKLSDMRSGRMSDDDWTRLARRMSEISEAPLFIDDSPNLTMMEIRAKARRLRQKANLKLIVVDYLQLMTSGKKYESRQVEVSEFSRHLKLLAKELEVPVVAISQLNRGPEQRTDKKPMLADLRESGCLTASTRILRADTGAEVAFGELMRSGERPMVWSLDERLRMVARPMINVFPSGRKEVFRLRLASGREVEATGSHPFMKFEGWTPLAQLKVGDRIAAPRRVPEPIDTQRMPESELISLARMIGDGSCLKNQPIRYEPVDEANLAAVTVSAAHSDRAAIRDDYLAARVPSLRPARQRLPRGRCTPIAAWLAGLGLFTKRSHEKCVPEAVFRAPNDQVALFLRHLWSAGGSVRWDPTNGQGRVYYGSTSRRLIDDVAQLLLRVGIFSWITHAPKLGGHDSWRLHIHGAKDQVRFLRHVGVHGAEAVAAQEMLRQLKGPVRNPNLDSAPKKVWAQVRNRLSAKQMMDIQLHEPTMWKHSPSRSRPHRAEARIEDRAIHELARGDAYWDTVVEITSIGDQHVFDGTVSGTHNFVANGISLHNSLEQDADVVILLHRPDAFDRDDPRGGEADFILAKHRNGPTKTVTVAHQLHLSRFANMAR

[9] = IGROV1 cell killing – plate reader, dry powder samples, PAX8 inhibitor project, dose response (AID 743043); assay type: functional, cell-based; settings: IGROV-1
[10] = target: T2, Ubiquitin-conjugating enzyme E2 N (Homo sapiens, UniProt P61088); assay type: functional
T2 sequence (P61088 whole entry): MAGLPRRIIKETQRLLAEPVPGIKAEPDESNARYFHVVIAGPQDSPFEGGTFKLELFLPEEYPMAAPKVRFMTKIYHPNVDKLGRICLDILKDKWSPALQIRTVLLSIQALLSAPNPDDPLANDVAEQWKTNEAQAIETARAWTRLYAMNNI

[11] = A2780 cell killing – plate reader, dry powder samples, cytotoxicity control, dose response (AID 743046); assay type: functional, cell-based
Paired box protein Pax-8 = Paired box protein Pax-8 (Homo sapiens, UniProt Q06710); experiment: PAX8 transcriptional activity inhibition in RMG-I – RMG-I cells, luciferase, cherry-pick, dose response (AID 687027); assay type: functional, cell-based;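 further: luciferase reporter driven by Pax8 target thyroperoxidase promoter measured by SteadyGlo luminescence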
[12] = PAX8-dependent cell viability loss – plate reader, dry powder, dose response (AID 743049); assay type: functional, cell-based
Protein RecA = target: T3, Protein RecA (Mycobacterium tuberculosis, UniProt P9WHJ3); experiment: Fluorescence Cell-Free Homogeneous Dose Retest to Identify Inhibitors of RecA-Intein Splicing Activity. [Related pubchem assays (depositor defined):AID2097, AID2223, AID489010, AID492950]; assay type: functional
T3 sequence (P9WHJ3 whole entry): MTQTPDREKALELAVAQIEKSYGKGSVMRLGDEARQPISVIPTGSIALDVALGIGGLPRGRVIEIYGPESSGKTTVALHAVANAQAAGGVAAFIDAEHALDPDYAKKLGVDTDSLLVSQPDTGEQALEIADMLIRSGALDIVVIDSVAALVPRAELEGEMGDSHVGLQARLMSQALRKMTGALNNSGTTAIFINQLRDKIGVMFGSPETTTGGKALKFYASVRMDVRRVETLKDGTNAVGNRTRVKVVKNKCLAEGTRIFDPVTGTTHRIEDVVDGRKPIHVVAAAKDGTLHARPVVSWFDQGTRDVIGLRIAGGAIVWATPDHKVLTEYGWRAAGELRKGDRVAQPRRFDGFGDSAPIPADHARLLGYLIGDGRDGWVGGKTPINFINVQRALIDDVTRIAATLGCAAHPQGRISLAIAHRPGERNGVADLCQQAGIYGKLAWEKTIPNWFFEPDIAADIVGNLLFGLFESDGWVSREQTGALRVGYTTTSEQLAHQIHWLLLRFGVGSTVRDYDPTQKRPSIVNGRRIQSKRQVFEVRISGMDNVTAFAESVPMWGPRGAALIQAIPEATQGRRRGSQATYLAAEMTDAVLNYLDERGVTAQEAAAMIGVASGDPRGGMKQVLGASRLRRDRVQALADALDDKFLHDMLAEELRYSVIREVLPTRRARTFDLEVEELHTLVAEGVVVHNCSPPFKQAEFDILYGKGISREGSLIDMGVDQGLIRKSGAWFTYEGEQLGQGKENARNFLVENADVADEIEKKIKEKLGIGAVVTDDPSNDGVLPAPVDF

[13] = toxicity toward immortalized ovarian surface epithelium – cell-based, plate reader, dry powder samples, cytotoxicity control for PAX8 inhibitor project, dose response (AID 743045); assay type: functional
[14] = OVCAR-3 cell viability loss – plate reader, dry powder samples, PAX8 inhibitor project, dose response (AID 743044); assay type: functional, cell-based
[15] = target: ATP-binding cassette sub-family B member 6 (Homo sapiens, UniProt Q9NP58); experiment: ABCB6 transporter inhibitors, porphyrin accumulation, dose response, flow cytometry, K562-ABCB6 cells, cherry pick 02 (AID 624487); assay type: functional; settings: read-out: EC50_MICROM
Bcl-2-related protein A1 = target: T4, Bcl-2-related protein A1 (Mus musculus, UniProt Q07440); assay type: functional;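 further: confirmatory dose–response counterscreen on Bfl-1, used to check hits from a UBC13 polyubiquitin inhibitor campaign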
T4 sequence (Q07440 whole entry): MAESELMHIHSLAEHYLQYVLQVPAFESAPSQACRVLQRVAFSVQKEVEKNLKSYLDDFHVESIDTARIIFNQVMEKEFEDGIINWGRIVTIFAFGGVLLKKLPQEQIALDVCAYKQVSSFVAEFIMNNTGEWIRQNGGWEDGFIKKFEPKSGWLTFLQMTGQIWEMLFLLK

[16] = COV362 cell viability loss – plate reader, dry powder, SA12, cytotoxicity control for PAX8 inhibitor project, dose response (AID 743144); assay type: functional, cell-based
[17] = target: T2, Ubiquitin-conjugating enzyme E2 N; assay type: functional; remark: listed apart in the source
[18] = non-specific 3'UTR reporter inhibition in Clone20-Shn3RL – cell-based, Renilla luciferase, cherry-picked, counter-screen for Shn3 inhibitor project, dose response (AID 624133); assay type: functional
CHO = CHO cell viability loss, potency – luminescence, cytotoxicity control for TLR9-MyD88 binding inhibitor project, dose response (AID 588339); assay type: functional, cell-based, hamster; settings: Cricetulus griseus;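 further: CHO cells stably coexpressing TLR9 and MyD88 fusions from primary screen; compound exposure lasted 48 hours before viability readout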
[19] = reduction of Shn3 3'UTR-driven luciferase in osteoblasts – cell-based, Clone20 osteoblasts, firefly luciferase, cherry-picked, dose response (AID 624132); assay type: functional;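 further: firefly luciferase luminescence from reporter carrying the Shn3 3'UTR in osteoblasts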
[20] = OVCAR4 cell viability loss – plate reader, dry powder, SA11, cytotoxicity control for PAX8 inhibitor project, dose response (AID 743150); assay type: functional, cell-based; settings: OVCAR-4
[21] = general cell-killing toxicity readout – plate reader, dry powder samples, cytotoxicity control for PAX8 inhibitor project, dose response (AID 743021); assay type: functional, cell-based
[22] = OV-90 cell viability loss – plate reader, dry powder, SA8, PAX8 inhibitor project, dose response (AID 743149); assay type: functional, cell-based
Beta Lactamase = Beta Lactamase (Pseudomonas aeruginosa, UniProt Q932Y6); experiment: BLA reporter interference, concentration series – BLA reporter cells, FRET fluorescence, artefact control for TLR9-MyD88 binding inhibitor project, dose response (AID 588341); assay type: cell-based;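 further: cell based assay in CHO-K1 cells stably expressing beta-lactamase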
[23] = COV434 cell viability loss – plate reader, dry powder, SA7, cytotoxicity control for PAX8 inhibitor project, dose response (AID 743145); assay type: functional, cell-based
[24] = target: T5, Microphthalmia-associated transcription factor (Homo sapiens, UniProt O75030); experiment: reducers of TRPM1 reporter luminescence, concentration series – cell-based, SK-MEL-5, cherry-picked, set 3, MITF inhibitor project, dose response (AID 493073); assay type: functional;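 further: SK-MEL-5 melanoma cells with luciferase driven by the MITF target TRPM1 promoter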
T5 sequence (O75030 whole entry): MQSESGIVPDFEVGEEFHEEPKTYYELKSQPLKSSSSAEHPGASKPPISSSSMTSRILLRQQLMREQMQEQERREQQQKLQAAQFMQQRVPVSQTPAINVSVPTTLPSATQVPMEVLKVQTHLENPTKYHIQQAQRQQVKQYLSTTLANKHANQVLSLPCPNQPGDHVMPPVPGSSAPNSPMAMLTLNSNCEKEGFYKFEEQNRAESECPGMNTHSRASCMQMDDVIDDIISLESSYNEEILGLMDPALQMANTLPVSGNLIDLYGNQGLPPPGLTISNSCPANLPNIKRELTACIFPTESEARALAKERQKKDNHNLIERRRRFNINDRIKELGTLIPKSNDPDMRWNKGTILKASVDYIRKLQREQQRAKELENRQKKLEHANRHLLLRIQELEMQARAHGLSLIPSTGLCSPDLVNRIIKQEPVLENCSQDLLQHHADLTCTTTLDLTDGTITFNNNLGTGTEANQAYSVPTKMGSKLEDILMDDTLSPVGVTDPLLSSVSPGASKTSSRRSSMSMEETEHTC

[25] = loss of viability in HepG2 cells – cell-based, CellTiter-Glo, cherry-picked, cytotoxicity control for Shn3 inhibitor project, dose response (AID 624134); assay type: functional
Phospholipase D2 = Phospholipase D2 (Homo sapiens, UniProt O14939); experiment: cellular phospholipase D2 inhibition IC50 – cell-based, dose response (AID 602147); assay type: functional;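 further: cellular assay in HEK293 cells overexpressing GFP-tagged PLD2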
Phospholipase D1 = Phospholipase D1 (Homo sapiens, UniProt Q13393); experiment: cellular phospholipase D1 inhibition IC50 – cell-based, dose response (AID 602151); assay type: functional;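 further: cellular PLD1 assay in Calu-1 cells stimulated with PMA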
Candida albicans [26] = experiment: Candida growth inhibition combined with fluconazole – CaCi-2 strain, Alamar Blue, dry powder, set 3, dose response (AID 488907); assay type: functional, organism-based
Candida albicans [27] = experiment: resistant Candida growth with fluconazole co-treatment – CaCi-8 strain, Alamar Blue, dry powder, set 3, dose response (AID 488905); assay type: functional, organism-based
[28] = target: Glycogen synthase kinase-3 beta (Homo sapiens, UniProt P49841); experiment: Inhibition of Human GSK-3 beta Activity Measured in Biochemical System Using Microfluidics - 2063-05_Inhibitor_Dose_DryPowder_Activity_Set2. [Related pubchem assays (depositor defined):AID2709]
[29] = target: Glycogen synthase kinase-3 alpha (Homo sapiens, UniProt P49840); experiment: Inhibition of Human GSK-3 alpha Activity Measured in Biochemical System Using Microfluidics - 2063-06_Inhibitor_Dose_DryPowder_Activity_Set2. [Related pubchem assays (depositor defined):AID2709]
[30] = target: T6, Cyclin-dependent kinase 5/CDK5 activator 1 (Homo sapiens, UniProt Q00535); experiment: human CDK5 activity blockade – biochemical, microfluidic mobility shift, dry powder, selectivity assay for GSK-3 alpha inhibitor project, dose response (AID 588430)
[31] = target: T6, Cyclin-dependent kinase 5/CDK5 activator 1; experiment: blockade of human CDK5 activity – biochemical, cherry-picked samples, set 2, dose response (AID 504545)

T6 sequence (Q00535 whole entry): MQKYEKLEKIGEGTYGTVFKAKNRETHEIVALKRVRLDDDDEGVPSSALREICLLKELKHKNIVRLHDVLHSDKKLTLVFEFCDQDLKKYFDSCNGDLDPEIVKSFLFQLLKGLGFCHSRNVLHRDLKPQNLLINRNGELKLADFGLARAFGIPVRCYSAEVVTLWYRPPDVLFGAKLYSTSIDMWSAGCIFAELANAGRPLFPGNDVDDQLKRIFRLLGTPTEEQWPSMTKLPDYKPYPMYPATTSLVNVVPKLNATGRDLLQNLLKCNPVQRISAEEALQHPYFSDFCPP
T6 sequence (Q15078 whole entry, further chain): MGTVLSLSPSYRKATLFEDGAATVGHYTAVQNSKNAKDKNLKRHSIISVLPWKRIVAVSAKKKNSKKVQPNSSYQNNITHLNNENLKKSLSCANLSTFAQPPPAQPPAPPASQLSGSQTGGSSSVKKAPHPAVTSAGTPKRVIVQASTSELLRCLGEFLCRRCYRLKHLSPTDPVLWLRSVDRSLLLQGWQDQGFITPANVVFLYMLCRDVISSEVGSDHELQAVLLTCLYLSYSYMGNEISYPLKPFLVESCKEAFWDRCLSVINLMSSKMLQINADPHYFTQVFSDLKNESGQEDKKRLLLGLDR
Chain of Phospholipase D1 (Q13393 whole entry): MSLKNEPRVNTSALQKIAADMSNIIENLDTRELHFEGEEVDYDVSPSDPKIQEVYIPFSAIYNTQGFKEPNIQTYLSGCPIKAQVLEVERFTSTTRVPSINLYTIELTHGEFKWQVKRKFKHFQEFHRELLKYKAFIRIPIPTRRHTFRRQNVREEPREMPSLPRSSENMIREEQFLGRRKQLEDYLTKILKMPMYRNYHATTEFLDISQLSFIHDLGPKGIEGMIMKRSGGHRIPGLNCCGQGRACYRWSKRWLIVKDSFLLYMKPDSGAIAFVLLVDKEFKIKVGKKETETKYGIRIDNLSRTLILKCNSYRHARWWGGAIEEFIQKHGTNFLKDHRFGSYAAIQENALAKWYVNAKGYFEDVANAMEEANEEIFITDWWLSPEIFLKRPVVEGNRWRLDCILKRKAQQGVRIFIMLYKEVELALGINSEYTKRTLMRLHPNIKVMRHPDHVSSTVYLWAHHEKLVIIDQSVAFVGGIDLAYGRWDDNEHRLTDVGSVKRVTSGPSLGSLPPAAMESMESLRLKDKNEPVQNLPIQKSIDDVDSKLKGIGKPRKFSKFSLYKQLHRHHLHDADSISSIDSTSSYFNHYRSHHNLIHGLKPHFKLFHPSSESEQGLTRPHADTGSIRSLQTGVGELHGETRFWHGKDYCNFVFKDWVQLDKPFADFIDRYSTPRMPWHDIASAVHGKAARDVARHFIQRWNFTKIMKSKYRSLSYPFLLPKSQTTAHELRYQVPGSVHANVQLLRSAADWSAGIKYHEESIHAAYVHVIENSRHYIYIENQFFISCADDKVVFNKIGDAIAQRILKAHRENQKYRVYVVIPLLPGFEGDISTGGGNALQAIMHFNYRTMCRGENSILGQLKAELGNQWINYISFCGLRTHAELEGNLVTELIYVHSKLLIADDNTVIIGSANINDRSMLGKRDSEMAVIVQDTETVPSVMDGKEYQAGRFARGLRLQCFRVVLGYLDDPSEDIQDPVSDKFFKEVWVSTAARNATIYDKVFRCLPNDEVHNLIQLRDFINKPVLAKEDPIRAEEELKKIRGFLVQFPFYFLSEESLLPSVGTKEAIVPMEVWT
Chain of Phospholipase D2 (O14939 whole entry): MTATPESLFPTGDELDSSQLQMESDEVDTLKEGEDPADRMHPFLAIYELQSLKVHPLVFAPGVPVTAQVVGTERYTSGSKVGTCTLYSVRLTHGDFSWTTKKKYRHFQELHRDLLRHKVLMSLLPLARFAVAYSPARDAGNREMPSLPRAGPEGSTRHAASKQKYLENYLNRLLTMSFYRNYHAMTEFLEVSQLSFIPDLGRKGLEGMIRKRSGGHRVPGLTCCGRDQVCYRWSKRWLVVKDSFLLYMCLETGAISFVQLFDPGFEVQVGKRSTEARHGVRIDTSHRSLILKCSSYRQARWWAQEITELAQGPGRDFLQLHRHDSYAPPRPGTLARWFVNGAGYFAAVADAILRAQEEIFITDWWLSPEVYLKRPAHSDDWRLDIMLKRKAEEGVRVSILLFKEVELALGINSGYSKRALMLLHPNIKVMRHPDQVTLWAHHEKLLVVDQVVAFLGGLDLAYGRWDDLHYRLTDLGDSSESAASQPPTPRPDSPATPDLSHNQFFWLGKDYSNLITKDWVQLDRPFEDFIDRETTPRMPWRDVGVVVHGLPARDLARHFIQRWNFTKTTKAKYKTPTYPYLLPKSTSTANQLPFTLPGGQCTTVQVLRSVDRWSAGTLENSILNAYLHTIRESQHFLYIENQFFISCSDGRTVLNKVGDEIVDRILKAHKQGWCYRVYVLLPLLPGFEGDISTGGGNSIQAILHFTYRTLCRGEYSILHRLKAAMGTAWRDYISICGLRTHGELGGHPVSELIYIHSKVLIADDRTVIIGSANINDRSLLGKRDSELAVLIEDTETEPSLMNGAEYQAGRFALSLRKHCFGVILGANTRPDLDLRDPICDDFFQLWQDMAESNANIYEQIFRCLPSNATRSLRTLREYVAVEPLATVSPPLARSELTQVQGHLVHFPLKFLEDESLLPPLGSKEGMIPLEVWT
Chain of Beta Lactamase (Q932Y6 whole entry): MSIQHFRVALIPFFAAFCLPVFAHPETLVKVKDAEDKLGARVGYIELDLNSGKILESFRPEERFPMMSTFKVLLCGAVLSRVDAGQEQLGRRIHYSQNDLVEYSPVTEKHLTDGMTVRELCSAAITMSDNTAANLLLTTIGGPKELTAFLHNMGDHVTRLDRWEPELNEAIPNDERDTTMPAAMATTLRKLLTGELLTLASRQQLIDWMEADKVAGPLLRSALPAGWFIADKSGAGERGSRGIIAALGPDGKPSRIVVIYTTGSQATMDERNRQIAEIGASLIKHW
Chain of Paired box protein Pax-8 (Q06710 whole entry): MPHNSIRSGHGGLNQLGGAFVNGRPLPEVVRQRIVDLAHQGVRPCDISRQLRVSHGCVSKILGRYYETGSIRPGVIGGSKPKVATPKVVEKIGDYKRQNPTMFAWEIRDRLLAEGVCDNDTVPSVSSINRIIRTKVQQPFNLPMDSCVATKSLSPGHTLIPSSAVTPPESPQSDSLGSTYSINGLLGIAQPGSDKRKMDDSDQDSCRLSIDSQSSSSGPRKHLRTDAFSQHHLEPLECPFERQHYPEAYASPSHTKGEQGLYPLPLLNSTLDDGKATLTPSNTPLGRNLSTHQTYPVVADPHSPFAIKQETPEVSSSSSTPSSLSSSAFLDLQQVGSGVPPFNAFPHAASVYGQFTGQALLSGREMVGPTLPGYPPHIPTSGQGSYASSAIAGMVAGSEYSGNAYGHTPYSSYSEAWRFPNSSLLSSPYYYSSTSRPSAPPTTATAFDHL
Chain of Luciferin 4-monooxygenase (P08659 whole entry): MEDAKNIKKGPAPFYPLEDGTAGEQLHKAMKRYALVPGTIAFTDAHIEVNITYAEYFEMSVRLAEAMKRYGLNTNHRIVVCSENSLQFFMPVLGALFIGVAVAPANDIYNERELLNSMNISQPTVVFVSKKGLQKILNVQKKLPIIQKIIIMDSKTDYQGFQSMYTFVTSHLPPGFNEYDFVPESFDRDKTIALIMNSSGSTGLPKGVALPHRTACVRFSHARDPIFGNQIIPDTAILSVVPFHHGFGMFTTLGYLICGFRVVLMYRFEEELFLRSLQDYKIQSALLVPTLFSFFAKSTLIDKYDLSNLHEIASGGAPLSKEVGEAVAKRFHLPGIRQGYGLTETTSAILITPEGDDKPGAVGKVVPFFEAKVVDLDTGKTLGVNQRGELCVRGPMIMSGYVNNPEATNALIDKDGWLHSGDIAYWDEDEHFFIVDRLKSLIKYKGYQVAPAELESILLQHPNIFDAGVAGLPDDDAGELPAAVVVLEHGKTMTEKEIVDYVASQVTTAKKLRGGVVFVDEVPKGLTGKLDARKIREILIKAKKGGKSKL
Chain of Glycogen synthase kinase-3 alpha (P49840 whole entry): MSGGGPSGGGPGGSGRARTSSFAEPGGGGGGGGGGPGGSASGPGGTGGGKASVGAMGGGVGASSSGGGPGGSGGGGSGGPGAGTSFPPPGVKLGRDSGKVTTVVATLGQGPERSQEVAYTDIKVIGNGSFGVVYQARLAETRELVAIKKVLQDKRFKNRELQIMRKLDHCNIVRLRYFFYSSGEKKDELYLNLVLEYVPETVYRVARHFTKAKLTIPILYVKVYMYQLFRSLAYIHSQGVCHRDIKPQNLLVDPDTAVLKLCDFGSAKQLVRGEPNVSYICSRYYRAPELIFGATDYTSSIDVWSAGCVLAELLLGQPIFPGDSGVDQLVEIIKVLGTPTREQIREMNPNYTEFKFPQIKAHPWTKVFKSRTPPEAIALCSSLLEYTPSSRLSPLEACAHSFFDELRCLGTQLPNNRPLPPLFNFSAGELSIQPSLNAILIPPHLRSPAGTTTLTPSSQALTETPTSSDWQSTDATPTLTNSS
Chain of Glycogen synthase kinase-3 beta (P49841 whole entry): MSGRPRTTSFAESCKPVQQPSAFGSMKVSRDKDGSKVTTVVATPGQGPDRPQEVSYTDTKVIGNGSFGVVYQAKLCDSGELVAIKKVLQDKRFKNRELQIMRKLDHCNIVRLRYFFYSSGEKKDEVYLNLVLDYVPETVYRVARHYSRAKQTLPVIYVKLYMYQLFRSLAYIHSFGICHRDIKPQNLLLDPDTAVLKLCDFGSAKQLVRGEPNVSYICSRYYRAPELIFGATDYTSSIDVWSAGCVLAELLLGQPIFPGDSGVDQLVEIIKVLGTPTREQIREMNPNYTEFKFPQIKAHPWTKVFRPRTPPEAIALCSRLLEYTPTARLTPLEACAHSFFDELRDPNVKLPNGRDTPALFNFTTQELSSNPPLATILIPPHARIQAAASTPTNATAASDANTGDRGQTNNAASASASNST

Cc1cc(C(=O)COC(=O)c2ccccc2O)c(C)n1CC1CCCO1 (centres undefined)
inactive: IC50 [1] > 80 µM
active: AC50 [2] 0.178 µM | AC50 (H4 [3]) 0.017 µM | AC50 (H4 [4]) 0.00598 µM | AC50 [5] 1.05 µM | AC50 (H4 [6]) 0.273 µM | IC50 (Jurkat) 0.25 µM | AC50 [7] 0.178 µM

CC(=O)Nc1ccc(NC(=O)c2nc(S(=O)(=O)Cc3ccccc3)ncc2Cl)cc1
active: AC50 [8] 11.2 µM | AC50 [9] 15.8 µM | AC50 [11] 10.2 µM | AC50 (Paired box protein Pax-8) 9.86 µM | AC50 [12] 17.6 µM | EC50 (Protein RecA) 9.36 µM | AC50 [13] 18.2 µM | AC50 [14] 15.3 µM | EC50 [15] 8.72 µM | AC50 [16] 23.1 µM | IC50 [17] 10.9 µM | AC50 [18] 6.33 µM | IC50 (CHO) 6.31 µM | AC50 [19] 0.773 µM | AC50 [20] 25.9 µM | AC50 [21] 20.7 µM | AC50 [22] 30 µM | IC50 (Beta Lactamase) 7.61 µM | AC50 [23] 12.7 µM | AC50 [24] 12.8 µM | AC50 [25] 28.6 µM
inactive: IC50 [10] > 20 µM | IC50 (Bcl-2-related protein A1) > 20 µM

O=C(NCCN1CCN(c2ccncc2)CC1)c1cc2cc(F)ccc2[nH]1
active: IC50 (Phospholipase D2) 15 µM | IC50 (Phospholipase D1) 3.6 µM

CCCCC(=O)N1CCN(c2ccccn2)CC1
active: AC50 (Candida albicans [26]) 0.73 µM | AC50 (Candida albicans [27]) 0.283 µM

COc1ccc2nc3c(cc2c1)c(NC(=O)CC(C)C)nn3CC(C)C
active: AC50 [28] 0.228 µM | AC50 [29] 1.48 µM | AC50 [30] 1.4 µM | AC50 [31] 32.7 µM
